{
  "source": "patent US20240294457A1",
  "about": "“Strained bi-functionalized trans-cyclooctenes” (Stichting Radboud Universiteit, priority 2021, published 2024)",
  "key": {"[1]": {"experiment": "Kinetics study of TCO-Tz click reaction by UV spectroscopy (540 nm)", "conditions": "MeCN, 20° C.", "protocol": "FIG. 1: The kinetics of TCO E-02a and 3,6-di(pyridin-2-yl)-1,2,4,5-tetrazine with a concentration of 10 and 50 μM at 20° C. in MeCN.\nThe reaction rate in a TCO-Tz click reaction of E-02a was measured under similar conditions as described in Versteegen et al., Angewandte Chemie International Edition 2013, 52 (52), 14112-14116. The second order reaction constant of the reaction between 3,6-di(pyridin-2-yl)-1,2,4,5-tetrazine and E-02a was determined under second order conditions in MeCN at 20° C. by UV spectroscopy. A cuvette was filled with MeCN (2.8 mL) and equilibrated at 20° C. A stock solution of tetrazine in DMSO (100 μl) was added to the cuvette. The absorption of the tetrazine moiety was measured at 540 nm. Next, the cuvette was removed from the apparatus to add a stock solution of E-02a in DMSO (100 μl) and briefly mixed the solution by shaking the cuvette before placing it back into the apparatus. The absorption at 540 nm was measured for 15 minutes. From this absorption at 540 nm, the concentration of tetrazine was calculated using a molar absorption coefficient of ε=430 M^−1 cm^−1. […] TCO reactions known from the prior art (Versteegen et al., Angewandte Chemie International Edition 2013, 52 (52), 14112-14116, DOI: 10.1002/anie.201305969) were assessed at 83.3 μM and afforded a lower rate of 62, 5 M^−1s^−1 under similar conditions."}, "[2]": {"experiment": "19F-NMR kinetic study of click-to-release reaction (release of PFP)", "protocol": "FIG. 2: ^19F-NMR kinetic study of the click-to-release reaction of 20 mM TCO (E-03a) with 3,6-di(pyridin-2-yl)-1,2,4,5-tetrazine at 20° C.\nThe ^19F NMR (377 MHz) spectrum of an NMR-tube filled with a solution of E-03a (5 mg, 1.0 equiv, 11.9 μmol) in CDCl3 (500 μl) was measured. Next, a solution of 3,6-di(pyridin-2-yl)-1,2,4,5-tetrazine (3.1 mg, 1.1 equiv, 13 μmol) in CDCl3 (100 μl) was added to the NMR tube. The tube was vigorously shaken and placed back in the NMR apparatus. The sample was measured within two minutes after the addition of the second compound. Every 48 seconds a measurement (number of scans: 4, relaxation delay: 5.8 see, range: −147.0 to −178.5 ppm) was taken of the sample. After 160 minutes the measurements were stopped.\nOnly after elevating the temperature to +10° C., the pentafluorophenyl carbonate was released from the conjugated product. Release of payload from compounds of the invention was not only found to be fast, but also complete. […] The fastest payload release observed with their compounds afforded less than 20% release over 250 minutes."}, "[3]": {"experiment": "Stability test of TCO in deuterated PBS buffer at 37° C. followed by 1H-NMR", "format": "physicochemical", "conditions": "covered from light", "protocol": "An NMR tube was charged with a solution of E-04a (41 mg) in deuterated PBS buffer (500 μl). The NMR sample was placed in a water bath at 37° C. while being covered from light by aluminum foil."}, "[4]": {"experiment": "Kinetics study of fluorophore (AMC) release, fluorescence, with DM tetrazine", "conditions": "PBS pH=7.2, 37° C.", "protocol": "(§1) A procedure adapted from prior art was followed (Fan, X. et al., Optimized tetrazine derivatives for rapid bioorthogonal decaging in living cells. Angew. Chem. 2016, 128 (45), 14252-14256.)\n(§2) Stock solutions (all in DMSO) • Stock A (R): E-022a (10 mmolar) • Stock A (NR): E-022b (10 mmolar) • Stock B (DM): 3,6-Dimethyl-1,2,4,5-tetrazine (DM) (20 mmolar) • Stock B (BP): 3,6-Di-2-pyridyl-1,2,4,5-tetrazine (BP) (20 mmolar) • Stock PC: 7-Amino-4-methylcoumarin (10 mmolar) 2.5 μL of the tetrazine stock (DM or BP) was mixed with 395.5 μL of PBS (pH=7.2). 2 μL of the TCO stock (A (R) or A (NR)) was added to this. The reaction mixtures were incubated at 37° C. under mixing (300 rpm). Subsequently, the fluorescence (F1) was measured (ex: 380 nm, em. 450 nm) at certain time points after the addition of the TCO by aliquoting 30 μL in a 384 wells plate (Greiner, black non-binding flat bottom) and directly measuring with a Tecan Spark plate-reader. As control experiment the maximum amount of released AMC was measured (F2, Stock PC without tetrazine or TCO). […] The release efficiency (%) was calculated: F1/F2×100%. All experiments were executed in triplo and the data was processed using GraphPad Prism (version 9.0). The Kelim. values were determined by first-order exponential one phase decay approximations. […] For BP this value was 2.96*10^−6S^−1."}, "[5]": {"experiment": "Kinetics study of fluorophore (AMC) release, fluorescence, with BP tetrazine", "conditions": "PBS pH=7.2, 37° C., first-order one phase fit", "protocol": "as §1, §2"}, "[6]": {"experiment": "Kinetics study of doxorubicin release by HPLC/LCMS", "conditions": "PBS pH=7.2, 37° C., directly after addition of tetrazine", "protocol": "Stock solutions (all in DMSO) • Stock E-025a: E-025a (10 mmolar) • Stock Ttz: 3,6-dimethyl-1,2,4,5-tetrazine (XA, 20 mmolar) Procedure: 100 μL of the TCO-Dox stock was added to 900 μL of PBS (pH=7.2) and HPLC analysis was done which only indicated starting material (t=13.08 min). Hereafter the reaction was incubated at 37° C. under mixing (300 rpm) and 500 μL of the Ttz stock was added. At certain time points after the addition of the Ttz the reaction mixture was analyzed by aliquoting 200 μL and analysis by HPLC/LCMS."}},
  "data": [
    {"smiles": "CCOC(=O)C1C2CC=CC(O)CCC21", "note": "(single isomer, unassigned) [E-02a]", "values": [
      {"measurement": "second order rate constant k2 (reaction rate) of click reaction", "setting": "[1]; concentration 10 μM", "value": 249, "unit": "M⁻¹ s⁻¹"},
      {"measurement": "second order rate constant k2 (reaction rate) of click reaction", "setting": "[1]; concentration 50 μM", "value": 437, "unit": "M⁻¹ s⁻¹"}
    ]},
    {"smiles": "CCOC(=O)[C@H]1[C@@H]2CCC(OC(=O)Oc3c(F)c(F)c(F)c(F)c3F)C=CC[C@@H]21", "note": "(stereo in doubt) [E-03b, ethyl (1S,5R,8R,9S, E)-5-(((perfluorophenoxy)carbonyl)oxy)bicyclo[6.1.0]non-3-ene-9-carboxylate]", "values": [
      {"measurement": "release rate compared with E-03a", "setting": "[2]; E-03b used instead of E-03a", "value": "several factors slower"}
    ]},
    {"smiles": "CCOC(=O)[C@H]1[C@@H]2CC[C@@H](OC(=O)Oc3c(F)c(F)c(F)c(F)c3F)/C=C/C[C@@H]21", "note": "[E-03a, ethyl (1S,5R,8R,9S, E)-5-(((perfluorophenoxy)carbonyl)oxy)bicyclo[6.1.0]non-3-ene-9-carboxylate]", "values": [
      {"measurement": "release of PFP (pentafluorophenolate) after 20 minutes", "setting": "[2]; 20 mM TCO, CDCl3, 20° C., 1.1 equiv tetrazine", "value": "Almost complete release"},
      {"measurement": "release upon tautomerization from the click product", "setting": "[2]; lower temperatures, 40 mM, dipyridyl tetrazine", "value": "instantaneous"},
      {"measurement": "formation of pentafluorophenol from click conjugate", "setting": "[2]; −20° C., 40 mM, dipyridyl tetrazine", "value": "did not show any formation of pentafluorophenol"}
    ]},
    {"smiles": "O=C(O)[C@H]1[C@@H]2CC[C@@H](O)/C=C/C[C@@H]21", "note": "[E-04a, (1S,5R,8R,9S, E)-5-hydroxybicyclo[6.1.0]non-3-ene-9-carboxylic acid]", "values": [
      {"measurement": "changes in the 1H-NMR spectrum after 7 days", "setting": "[3]", "value": "no changes"}
    ]},
    {"smiles": "CCOC(=O)[C@H]1[C@@H]2CC[C@@H](OC(=O)Nc3ccc4c(C)cc(=O)oc4c3)/C=C\\C[C@@H]21", "note": "[E-022a, COOEt-Exo-Axial-TCO-AMC]", "values": [
      {"measurement": "Kelim. value of AMC release", "setting": "[4]; DM tetrazine, first-order one phase fit", "value": "8.15*10^−5 S^−1"},
      {"measurement": "Kelim. value of AMC release", "setting": "[5]", "value": "2.96*10^−6 S^−1"}
    ]},
    {"smiles": "CCOC(=O)[C@H]1[C@@H]2CCC(OC(=O)Nc3ccc4c(C)cc(=O)oc4c3)/C=C\\C[C@@H]21", "note": "(stereo partly drawn) [E-022b, COOEt-Exo-Equatorial-TCO-AMC]", "values": [
      {"measurement": "AMC release compared with E-022a", "setting": "[4]; tetrazine (DM or BP) not specified", "value": "slower"}
    ]},
    {"smiles": "CCOC(=O)[C@H]1[C@@H]2CC[C@@H](OC(=O)N[C@H]3C[C@H](O[C@H]4C[C@](O)(C(=O)CO)Cc5c(O)c6c(c(O)c54)C(=O)c4c(OC)cccc4C6=O)O[C@@H](C)[C@@H]3O)/C=C\\C[C@@H]21", "note": "[E-025a, COOEt-Exo-Axial-TCO-PNP]", "values": [
      {"measurement": "release of doxorubicin after addition of the tetrazine", "setting": "[6]", "value": "almost instant release"}
    ]}
  ]
}
